Reference: US9045423B2, “Prophylactic and/or therapeutic agent for anemia comprising tetrahydroquinoline compound as active ingredient” (KOWA COMPANY, LTD., priority 2009, dated 2015)

Experiments:
[1] = test system: HepG2 cells derived from human liver cancer; assay: EPO production in HepG2 cells (EPO ELISA of culture supernatant); type: cell-based; settings: Homo sapiens; for activity at 3 µM: HepG2, 3 μM test compound, 48 hrs, 4% oxygen, non-stimulated state without compound = 100%, read-out: amount of EPO production, % of control (3 μM); for activity at 10 µM: HepG2, 48 h, final concentration 10 μM, non-stimulated state = 100%, read-out: enhancement of EPO production
Procedure: HepG2 cells derived from human liver cancer were inoculated in an amount of 5×10^4 cells per well on a 48-well plate, using minimum essential medium (MEM, Sigma-Aldrich Company) containing 10% bovine fetal serum. On the next day, the medium was exchanged with Dulbecco's modified eagle medium (DMEM (Sigma-Aldrich Company)) containing 10% bovine fetal serum without Phenol Red. Then, a test compound dissolved in DMSO was added thereto to obtain a final concentration of 3 μM or 10 μM, and the amount of medium was adjusted to 400 μL per well. The cells were incubated for 48 hrs in a CO2 incubator in which the oxygen concentration was adjusted to 4%, and then the culture supernatant was collected. The EPO concentration in the culture supernatant was immediately measured using an EPO ELISA kit (Roche Diagnostics GmbH). The method was carried out according to the operation manual.
The amount of EPO production in a non-stimulated state where no compounds were added, was designated as 100%, and the amount of EPO production (% of control) induced by each of the compounds was determined.

[2] = test system: K562 cells, a human proerythroblast cell line; assay: Hemoglobin production in K562 cells (fluorescence of the porphyrin ring); type: cell-based; settings: Homo sapiens, K562, 144 h; 6 μM test compound, 3 + 3 days incubation; non-stimulated state without compound = 100; read-out: amount of hemoglobin, % of control (6 μM)
Procedure: K562 cells (obtained from ATCC), which is a human proerythroblast cell line, were inoculated at a concentration of 1×10^5 cells/1 mL in each well of a 24-well plate, using complete medium (RPMI-1640 medium containing 10% bovine fetal serum), and 1 μL of a test compound at a 1000-fold concentration was added to each well. Subsequently, the cells were incubated for 3 days in a CO2 incubator (37° C., 5% CO2). The medium was exchanged, and the cells were further incubated for 3 days. The cells were collected and counted. Subsequently, the amount of hemoglobin produced in the cells was determined by adjusting the number of cells to 3×10^5 cells, and measuring the fluorescence of the porphyrin ring. That is, the cells collected by centrifugation were suspended in 500 μL of 2 M oxalic acid, and were heated to boil for 30 minutes. The cells were cooled, and then the fluorescence intensity was measured by using a fluorescence microplate reader (Spectra MAX GeminiEM; Molecular Devices Corp.) ([…]). The amount of hemoglobin in a non-stimulated state where no compound was added was designated as 100-, and the amount of hemoglobin (% of control) produced as induced by each of the compounds was determined.

SMILES	activity at 3 µM [1] [%]	activity at 6 µM [2] [%]	activity at 10 µM [1] [%]
CC(=O)N1c2ccc(C(=O)NCCOCCOCCOCCC(=O)OC(C)(C)C)cc2C(Nc2ccc(N3CCOCC3)cc2)CC1C (stereo not shown) [Compound 149, Tert-butyl 12-{1-Acetyl-2-methyl-4-[(4-morpholinophenyl)-amino]-1,2,3,4-tetrahydroquinoline-6-carboxamido}-4,7,10-trioxadodecanoate]	190	367	
CC(=O)N1c2ccc(C(N)=O)cc2C(Oc2ccc(Cl)cc2)CC1C (stereo not shown) [Compound 142, 1-Acetyl-4-(4-chlorophenoxy)-2-methyl-1,2,3,4-tetrahydro-quinoline-6-carboxamide]	129	478	
CC(=O)N1c2ccc(C(=O)NC3CCCCC3)cc2C(Nc2ccc(N3CCOCC3)cc2)CC1C (stereo not shown) [Compound 178, 1-Acetyl-N-cyclohexyl-2-methyl-4-[(4-morpholinophenyl)-amino]-1,2,3,4-tetrahydroquinoline-6-carboxamide]	370	388	
CNC(=O)c1ccc2c(c1)C(Nc1ccc(N3CCOCC3)cc1)CC(C)N2C(C)=O (stereo not shown) [Compound 132, 1-Acetyl-4-[(4-morpholinophenyl)-amino]-N,2-dimethyl-1,2,3,4-tetrahydroquinoline-6-carboxamide]	208	198	
CCOC(=O)c1ccc2c(c1)C(Nc1ccc(C3CCCCC3)cc1)CC(C)N2C(C)=O (stereo not shown) [Compound 144, Ethyl 1-Acetyl-4-[(4-cyclohexylphenyl)-amino]-2-methyl-1,2,3,4-tetrahydroquinoline-6-carboxylate]	180	338	
CC(=O)N1c2ccc(C(=O)NC(=O)c3ccccc3)cc2C(Nc2ccc(N3CCOCC3)cc2)CC1C (stereo not shown) [Compound 166, 1-Acetyl-N-benzoyl-2-methyl-4-[(4-morpholinophenyl)-amino]-1,2,3,4-tetrahydroquinoline-6-carboxamide]	185	282	
CC(=O)N1c2ccccc2C(Nc2ccc3ocnc3c2)CC1C (stereo not shown) [Compound 136, 1-Acetyl-4-[(benzoxazol-5-yl)-amino]-2-methyl-1,2,3,4-tetrahydroquinoline]	141	136	
COC(=O)CCCc1ccc(NC(=O)c2ccc3c(c2)C(Nc2ccc(N4CCOCC4)cc2)CC(C)N3C(C)=O)cc1 (stereo not shown) [Compound 151, Methyl 4-(4-{1-Acetyl-2-methyl-4-[(4-morpholinophenyl)-amino]-1,2,3,4-tetrahydroquinoline-6-carboxamido}-phenyl)butanoate]	110	341	
CC(=O)N1c2ccc(C(=O)NC#N)cc2C(Nc2ccc(Cl)cc2)CC1C (stereo not shown) [Compound 128, 1-Acetyl-4-[(4-chlorophenyl)-amino]-N-cyano-2-methyl-1,2,3,4-tetrahydroquinoline-6-carboxamide]	176	120	
CC(=O)N1c2ccc(C(=O)NC(C)C)cc2C(Nc2ccc(N3CCOCC3)cc2)CC1C (stereo not shown) [Compound 176, 1-Acetyl-N-isopropyl-2-methyl-4-[(4-morpholinophenyl)-amino]-1,2,3,4-tetrahydroquinoline-6-carboxamide]	325	355	
CC(=O)N1c2ccc(C(=O)NCCO)cc2C(Nc2ccc(Cl)cc2)CC1C (stereo not shown) [Compound 126, 1-Acetyl-4-[(4-chlorophenyl)-amino]-N-(2-hydroxyethyl)-2-methyl-1,2,3,4-tetrahydroquinoline-6-carboxamide]	161	124	
CC(=O)N1c2ccc(C(=O)NN)cc2C(Nc2ccc(N3CCOCC3)cc2)CC1C (stereo not shown) [Compound 133, 1-Acetyl-4-[(4-morpholinophenyl)-amino]-2-methyl-1,2,3,4-tetrahydroquinoline-6-carbohydrazide]	113	136	
CC(=O)N1c2ccc(C(=O)Nc3ccccn3)cc2C(Nc2ccc(N3CCOCC3)cc2)CC1C (stereo not shown) [Compound 177, 1-Acetyl-2-methyl-4-[(4-morpholinophenyl)-amino]-N-(pyridin-2-yl)-1,2,3,4-tetrahydroquinoline-6-carboxamide]	265	353	
CC(=O)N1c2ccc(C(N)=O)cc2C(Nc2ccc(-c3csc(C)n3)cc2)CC1C (stereo not shown) [Compound 164, 1-Acetyl-2-methyl-4-{[4-(2-methylthiazol-4-yl)-phenyl]amino}-1,2,3,4-tetrahydroquinoline-6-carboxamide]	336	367	
CC(=O)N1c2ccc(N3CCOCC3)cc2C(Nc2ccc(N3CCOCC3)cc2)CC1C (stereo not shown) [Compound 161, 1-Acetyl-2-methyl-6-morpholino-4-[(4-morpholinophenyl)-amino]-1,2,3,4-tetrahydroquinoline]	351	308	
CC(=O)N1c2ccc(C(N)=O)cc2C(Nc2ccc(C3CCCCC3)cc2)CC1C (stereo not shown) [Compound 147, 1-Acetyl-4-[(4-cyclohexylphenyl)-amino]-2-methyl-1,2,3,4-tetrahydroquinoline-6-carboxamide]		160	130
CC(=O)N1c2ccc(F)cc2C(Nc2ccc(C(=O)O)cc2)CC1C (stereo not shown) [Compound 137, 1-Acetyl-6-fluoro-4-[(4-carboxy-phenyl)amino]-2-methyl-1,2,3,4-tetrahydroquinoline]	110	190	
CNC(=O)c1ccc2c(c1)C(Nc1ccc(-c3cnns3)cc1)CC(C)N2C(C)=O (stereo not shown) [Compound 174, 1-Acetyl-N,2-dimethyl-4-{[4-(1,2,3-thiadiazol-5-yl)-phenyl]amino}-1,2,3,4-tetrahydroquinoline-6-carboxamide]	218	163	
CC(=O)N1c2ccc(C(N)=O)cc2C(Nc2ccc(-c3cnns3)cc2)CC1C (stereo not shown) [Compound 173, 1-Acetyl-2-methyl-4-{[4-(1,2,3-thiadiazol-5-yl)-phenyl]amino}-1,2,3,4-tetrahydroquinoline-6-carboxamide]	323	158	
COC(=O)CCCCCNC(=O)c1ccc2c(c1)C(Nc1ccc(N3CCOCC3)cc1)CC(C)N2C(C)=O (stereo not shown) [Compound 157, Methyl 6-{1-Acetyl-2-methyl-4-[(4-morpholinophenyl)-amino]-1,2,3,4-tetrahydro-quinoline-6-carboxamido}-hexanoate]		396	237
CC(=O)N1c2ccc(-c3n[nH]c(=O)o3)cc2C(Nc2ccc(N3CCOCC3)cc2)CC1C (stereo not shown) [Compound 134, 1-Acetyl-4-[(4-morpholinophenyl)-amino]-2-methyl-6-[1,3,4-oxadiazol-2(3H)-on-5-yl]-1,2,3,4-tetrahydroquinoline]	157	298	
CC(=O)N1c2ccc(N3CCOCC3)cc2C(Oc2ccc(Cl)cc2)CC1C (stereo not shown) [Compound 152, 1-Acetyl-4-(4-chloro-phenoxy)-2-methyl-6-morpholino-1,2,3,4-tetrahydroquinoline]	186	337	
CC(=O)N1c2ccc(C(=O)O)cc2C(Nc2ccc(C3CCOCC3)cc2)CC1C (stereo not shown) [Compound 154, 1-Acetyl-2-methyl-4-{[4-(tetrahydro-2H-pyran-4-yl)-phenyl]amino}-1,2,3,4-tetrahydroquinoline-6-carboxylic acid]	116	320	
CC(=O)NC(=O)c1ccc2c(c1)C(Nc1ccc(N3CCOCC3)cc1)CC(C)N2C(C)=O (stereo not shown) [Compound 175, N,1-diacetyl-2-methyl-4-[(4-morpholinophenyl)amino]-1,2,3,4-tetrahydroquinoline-6-carboxamide]	270	275	
CNC(=O)c1ccc2c(c1)C(Nc1ccc(-c3csc(C)n3)cc1)CC(C)N2C(C)=O (stereo not shown) [Compound 165, 1-Acetyl-N,2-dimethyl-4-{[4-(2-methylthiazol-4-yl)phenyl]amino}-1,2,3,4-tetrahydroquinoline-6-carboxamide]		304	159
CNC(=O)c1ccc2c(c1)C(Oc1ccc(N3CCOCC3)cc1)CC(C)N2C(C)=O (stereo not shown) [Compound 140, 1-Acetyl-N,2-dimethyl-4-(4-morpholinophenoxy)-1,2,3,4-tetrahydroquinoline-6-carboxamide]	124	231	
